Data published in US9447055B1, “α-amino esters of hydroxypropylthiazolidine carboxamide derivative and salt form, crystal polymorph thereof” (Merck Serono S.A., priority 2016, dated 2016).
Converted amounts (≈) assume the structure as drawn. “Also recorded” adds a separate entry of the source.

Key:
[1] = moisture sorption/desorption and relative humidity stability of salts; assay type: physicochemical; conditions: for hygroscopicity: moisture balance data, hydrochloride
Protocol: Moisture sorption/desorption (MB) data were collected on a VTI SGA-100 Vapor Sorption Analyzer. Sorption and desorption data were collected over a range of 5% to 95% relative humidity (RH) at 10% RH intervals under a nitrogen purge. Samples were not dried prior to analysis. Equilibrium criteria used for analysis were less than 0.0100% weight change in 5 minutes, with a maximum equilibration time of 3 hours if the weight criterion was not met. Data were not corrected for the initial moisture content of the samples. NaCl and PVP were used as calibration standards.

[2] = aqueous solubility of compound I salts; assay type: physicochemical; conditions: water
[3] = test system: other prostaglandin receptor subtypes; conditions: FP over other subtypes
Protocol: (§1) Selectivity of compound II was tested against all eight prostaglandin receptor subtypes.

[4] = target: prostaglandin E receptor 2 (EP2) (Homo sapiens (Human), UniProt P43116); conditions: FP over EP2
Protocol: as §1

[5] = target: human FP-R (Homo sapiens (Human), UniProt P43088); assay: competitive radioligand binding, recombinant FP receptor expressed in HEK293-EBNA cells
Protocol: The potency of inhibition of compound I and compound II on prostaglandin F2α receptor was assessed by analyzing the affinity of these compounds for recombinant FP receptor expressed in HEK293-EBNA cells.

[6] = test system: panel of 50 receptors, channels and enzymes binding sites; conditions: 1 μM
[7] = solubility in water and simulated intestinal media; assay type: physicochemical
[8] = test system: Caco-2 cell monolayer; assay: bidirectional permeability across Caco-2 cell monolayers; assay type: in vitro ADME, human; conditions: for efflux: bi-directional
Protocol: (§2) Compound I was dissolved in HBSS buffer (1% DMSO final concentration) at the concentrations of 1.5, 3 and 6 μM. Each concentration/sampling time was run in duplicate well. The test was performed in a gradient pH: the apical compartment (mucosal) was at pH 6.5, the basolateral compartment (serosal) was at pH 7.4.
(§3) Apical to basolateral (A→B, mucosal to serosal) transport: 200 μL of each concentration of compound I was added to the apical compartment and 400 μL of HBSS was added to the basolateral compartment. The plates were incubated at 37° C. An aliquot of the basolateral compartment was sampled after 60 and 120 min (t=60 and t=120). An aliquot of the apical compartment was sampled at the starting time (t=0) and after 120 min. (t=120).
(§4) Basolateral to apical (B→A, serosal to mucosal) transport: 400 μL of each concentration of compound I was added to the basolateral compartment and 200 μL of HBSS was added to the apical compartment. The plates were incubated at 37° C. An aliquot of the apical compartment was sampled after 60 and 120 min (t=60 and t=120). An aliquot of the basolateral compartment was sampled at the starting time (t=0) and after 120 min. (t=120). All samples were analyzed by LC/MS monitoring both compound I and the appearance of compound II.
as §2, with “II” for “I”
as §3, with “II” for “I”
as §4, with “of compound II was added” for “of compound I was added”, “LC/MS monitoring compound II.” for “LC/MS monitoring both compound I and the appearance of compound II.”

[9] = target: human FP (Homo sapiens (Human), UniProt P43088); assay: IP3 synthesis in FP-transfected HEK293-EBNA cells; assay type: cell-based
Protocol: The functional characterization of compound II on human FP was performed in transfected HEK293-EBNA cells.

[10] = test system: spontaneous uterine contractions; assay: spontaneous uterine activity in late-term anaesthetized pregnant rat; assay type: in vivo; conditions: late-term pregnant rats; for reduction of spontaneous uterine contractions: i.v. or oral, maximal effect at 30 mg/kg i.v. and 60 mg/kg oral; for intravenous activity compared with atosiban: i.v.
From the text: The tocolytic effects of compound I and compound II were investigated in a model of spontaneous uterine activity in late-term (19-21 days of gestation) anaesthetized pregnant rat (Kawarabayashi et al. Am. J. Obstet. Gynecol. 175:1348-1355 (1996) and Shinkai et al. J. Pharm. Pharmacol. 52:1417-1423 (2000)). Briefly, late-term pregnant female rats were anaesthetized with urethane. One pregnant uterine horn was exposed and a polyethylene catheter bearing on the tip a latex balloon filled with saline was inserted into the lumen. The catheter was connected to an amplifying/recording system via a pressure-transducer. […] For the i.v. administration the uterine contractile activity was quantified by calculating the AUC during the 10 min injection period. The percent variation of the AUC values relative to the spontaneous uterine response observed after each compound administration was calculated in comparison to the value recorded before the first dose-administration (basal value). The effect of compound I or compound II was evaluated by comparing pre- and post-treatment luminal uterine pressure values. For the oral administration the same computation procedure was applied at different time points after treatment. Statistical differences between treatment groups at each time-point were determined by using one-way ANOVA followed by Tukey test. Both compounds intravenously or orally administered were able to markedly reduce spontaneous uterine contractions by around 40-50% (maximal effect obtained at 30 mg/kg by i.v. route and 60 mg/kg by oral route).

[11] = stability in HBSS transport buffer; assay type: in vitro ADME; conditions: 37° C., 60 and 120 minutes
Protocol: Stability of both compound I and compound II was assessed during the test. These compounds were dissolved in HBSS buffer (1% DMSO final concentration) at the concentrations of 1.5, 3 and 6 μM. An aliquot of each solution was sampled at time zero (t=0) to assess the starting concentrations of the compounds. The solutions were incubated at 37° C. for the duration of the transport experiment. An aliquot of each solution was sampled at the end of experiment (t=120) to assess the final concentrations of compound I and compound II. Samples were analyzed by LC-MS.

[12] = non-specific binding to cell-free transwells; assay type: in vitro ADME
Protocol: Non-specific binding and recovery was assessed across cell-free transwells.
Compound I was tested at 1.5, 3 and 6 μM in duplicate cell-free transwells. The test was performed in a pH gradient between the apical and the basolateral compartment. […] The following sampling times were performed: 60 and 120 min for the basolateral compartment (receiver) and 120 min for the apical compartment (donor). Samples obtained were analyzed by LC-MS, both compound I and compound II were monitored in order to assess percent of recovery.

[13] = in vivo conversion of compound I to compound II; conditions: following gastrointestinal tract administration
Protocol: The invention is based on the discovery that compound I ((3S)-3-({[(2S)-3-(biphenyl-4-ylsulfonyl)-1,3-thiazolidin-2-yl]carbonyl}-amino)-3-(4-fluorophenyl)propyl L-valinate, represented by formula I, below) and salts thereof are converted in vivo to 3-([1,1′-biphenyl]-4-ylsulfonyl)-N-[1-(4-fluorophenyl)-3-hydroxypropyl]-1,3-thiazolidine-2-carboxamide (represented by formula II, below).
Compound II is a competitive and reversible prostaglandin F2α receptor antagonist (human FP2α receptor Ki=6 nM) that is under development for the management of pre-term labor by inhibition of premature uterine contractions.

[14] = target: PepT1 transporter (Homo sapiens (Human), UniProt P46059); assay: mucosal-to-serosal Caco-2 transport after Gly-Sar pre-treatment; assay type: in vitro ADME; conditions: 10 mM Gly-Sar pre-treatment; for compound I passage to receiving compartment after Gly-Sar pre-treatment: A→B
Protocol: The differentiated cells were pre-treated for 30 min. with 10 mM of Gly-Sar in order to block the active transporter PepT1.
as §2
Apical to basolateral (A→B, mucosal to serosal) transport: 200 μL of each concentration of compound I was added to the apical compartment and 400 μL of HBSS was added to the basolateral compartment. The plates were incubated at 37° C. An aliquot of the basolateral compartment was sampled after 60 and 120 min (t=60 and t=120). An aliquot of the apical compartment was sampled at the starting time (t=0) and after 120 min. (t=120). All samples were analyzed by LC/MS monitoring both compound I and the appearance of compound II.

[15] = FaSSIF pH 6.5, read-out: Solubility in FaSSIF
[16] = FeSSIF pH 5.0, read-out: Solubility in FeSSIF
[17] = water, read-out: Solubility in water

human FP, sequence (P43088 whole entry): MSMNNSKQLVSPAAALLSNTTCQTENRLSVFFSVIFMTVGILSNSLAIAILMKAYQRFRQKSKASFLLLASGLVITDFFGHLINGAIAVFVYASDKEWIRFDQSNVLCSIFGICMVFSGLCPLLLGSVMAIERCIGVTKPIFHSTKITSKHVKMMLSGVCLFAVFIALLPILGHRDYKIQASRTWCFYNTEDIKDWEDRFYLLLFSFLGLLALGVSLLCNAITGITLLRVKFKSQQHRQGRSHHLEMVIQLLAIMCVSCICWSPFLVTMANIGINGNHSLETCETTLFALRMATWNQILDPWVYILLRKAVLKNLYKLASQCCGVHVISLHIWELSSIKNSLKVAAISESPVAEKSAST
human FP-R, sequence (P43088 whole entry): as above
prostaglandin E receptor 2 (EP2), sequence (P43116 whole entry): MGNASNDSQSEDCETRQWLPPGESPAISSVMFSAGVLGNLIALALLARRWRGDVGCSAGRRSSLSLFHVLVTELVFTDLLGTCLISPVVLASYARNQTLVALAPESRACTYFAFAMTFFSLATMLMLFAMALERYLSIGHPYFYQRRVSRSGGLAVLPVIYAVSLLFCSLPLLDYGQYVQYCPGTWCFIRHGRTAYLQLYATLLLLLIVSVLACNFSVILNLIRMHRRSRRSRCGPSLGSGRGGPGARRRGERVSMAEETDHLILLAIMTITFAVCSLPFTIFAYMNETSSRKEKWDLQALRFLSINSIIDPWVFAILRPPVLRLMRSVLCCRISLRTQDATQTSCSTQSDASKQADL

CC(C)[C@H](N)C(=O)OCC[C@H](NC(=O)[C@@H]1SCCN1S(=O)(=O)c1ccc(-c2ccccc2)cc1)c1ccc(F)cc1.Cl [Compound III, (3S)-3-({[(2S)-3-(biphenyl-4-ylsulfonyl)-1,3-thiazolidin-2-yl]carbonyl}-amino)-3-(4-fluorophenyl)propyl L-valinate hydrochloride]
deliquescence ([1]; 2 days at approximately 95% RH): did not deliquesce
weight loss upon desorption ([1]; desorption after sorption to 95% RH): approximately 0.7%
weight gain on sorption ([1]; from 5 to 95% relative humidity): Approximately 0.9%
hygroscopicity [1]: low hygroscopicity
hygroscopicity ([1]; listed as chloride salt): non-hygroscopic
hygroscopicity ([1]; listed as hydrochloride salt): low hygroscopicity; also recorded: non-hygroscopic
solubility [2]: < 1000 µg/mL

O=C(N[C@@H](CCO)c1ccc(F)cc1)[C@@H]1SCCN1S(=O)(=O)c1ccc(-c2ccccc2)cc1 (stereo in doubt) [Compound II, 3-([1,1′-biphenyl]-4-ylsulfonyl)-N-[1-(4-fluorophenyl)-3-hydroxypropyl]-1,3-thiazolidine-2-carboxamide]
Selectivity against other prostaglandin receptors [3]: higher than 100 fold
Selectivity versus prostaglandin E receptor 2 (EP2) [4]: approximately 10 fold
Ki [5]: 6 nM
Selectivity in panel of 50 receptors, channels and enzymes binding sites [6]: high selectivity for FP
solubility [7, 15]: 0.4 µg/mL (≈ 0.799 µM)
solubility [7, 16]: 10 µg/mL (≈ 20 µM)
solubility [7, 17]: 0.4 µg/mL (≈ 0.799 µM)
passive passage through the Caco-2 monolayer [8]: good passive passage
passage apical to basolateral ([8]; A→B): good percentage of passage
permeability basolateral to apical ([8]; B→A): low rate of permeability
efflux [8]: No efflux was detected
efflux ([8]; listed as compound II): Evidence was not found that compound II might be a substrate for an efflux transporter
IC50 ([9]; FP/HEK293-EBNA cells, read-out: inhibition of synthesis of IP3, IC50): 60 nM
agonist activity: synthesis of IP3 when added alone ([9]; tested up to 10 μM, added alone): did not induce any synthesis of IP3
reduction of spontaneous uterine contractions [10]: 40-50%
intravenous activity compared with atosiban [10]: comparable or slightly higher than that of the tocolytic drug atosiban
stability in HBSS buffer [11]: stable

CC(C)[C@H](N)C(=O)OCC[C@H](NC(=O)[C@@H]1SCCN1S(=O)(=O)c1ccc(-c2ccccc2)cc1)c1ccc(F)cc1 [Compound I, (3S)-3-({[(2S)-3-(biphenyl-4-ylsulfonyl)-1,3-thiazolidin-2-yl]carbonyl}-amino)-3-(4-fluorophenyl)propyl L-valinate]
Ki [5]: 1 nM
non-specific binding ([12]; cell-free transwells, 1.5, 3 and 6 μM): excluded
detection in basolateral compartment of cell-free transwell ([12]; cell-free transwells, any dose tested): not detected
solubility [7, 15]: 70 µg/mL (≈ 117 µM)
solubility [7, 16]: 90 µg/mL (≈ 150 µM)
solubility [7, 17]: 380 µg/mL (≈ 634 µM)
compound I in basolateral (receiving) compartment, apical to basolateral ([8]; A→B, 60 and 120 minutes, 1.5, 3 and 6 μM): not detected
compound I in apical (receiving) compartment, basolateral to apical ([8]; B→A, 60 and 120 minutes): not detected
recovery of compound I in apical compartment at end of apical to basolateral experiment ([8]; apical compartment, 120 min): primarily recovered in the form of the de-esterified variant, compound II; also recorded: low recovery
passage through the Caco-2 cell monolayer ([8]; bi-directional permeability test): did not pass through the cell monolayer
reduction of spontaneous uterine contractions [10]: 40-50%
intravenous activity compared with atosiban [10]: comparable or slightly higher than that of the tocolytic drug atosiban
stability in HBSS buffer [11]: stable
conversion to compound II [13]: rapidly converted to compound II
PepT1 mediation of transport [14]: likely not mediated by PepT1
compound I passage to receiving compartment after Gly-Sar pre-treatment [14]: not detected
compound I passage to receiving compartment after Gly-Sar pre-treatment ([14]; listed as compound I): no passage
